# According to US20170196987A1, “METHODS FOR TREATING MULTIPLE SCLEROSIS” (MedWell Laboratories Ltd., priority 2014, published 2017):
# Assays:
# [1] = tested on: Experimental Autoimmune Encephalomyelitis (EAE) mice; assay: Efficacy of conjugate MW001 in MOG 35-55 induced EAE (model of multiple sclerosis), Example 1; assay type: in vivo, female C57B1 mice
# Description: Disease was induced in female C57B1 mice (6-8 weeks old; Harlan). Myelin Oligodendrocyte Glycoprotein (MOG) 35-55 was dissolved in saline (3 mg/ml) and emulsified (1:1) with Complete Freund's Adjuvant (CFA) (gibco; containing 5 mg of killed mycobacterium tuberculosis (MT). 200 μl of the emulsion (containing […] of MOG) were injected into the right flank of each mouse, wherein and each mouse received a 250 ng supplement of pertussis toxin (PT, List) by intraperitoneal injection. Another 250 ng of PT were injected into the right flank of each mouse 24 hours later. The mice were observed daily from the 9th day post-EAE and the clinical signs were scored as described in Table 1 below:
# The MW-001 conjugate was dissolved in ethanol (60 mg/ml) and administered by intraperitoneal injection, at a dose of 50 mg/kg (10% stock in saline) twice a day, once at 9 am and once at […]. Each dose was administered in a volume of 0.2ml/mouse (˜20 g). One group of animals was treated starting at day 0 (relating to the first day on which the induction of the disease started) and the other starting at day 10, when clinical signs first appeared. […]
# Calculation of the incidence of disease: The number of sick animals in each group was summed and percentage of sick animals in each group was calculated.
# Calculation of the mean maximal score (MMS): The maximal scores of each of the 10 mice in the group was summed and the mean maximal score of each group was calculated as follows:Σmaximal score of each mouse/number of mice in the group.
# Calculation of the group mean score (GMS):The scores of each of the 10 mice in the group was summed and the mean score per day calculated. The group mean score was calculated as follows: Σtotal score of each mouse per day/number of mice in the group.
# Mean maximal score (MMS): defined as the disease severity; scored on a scale of 0-5 with graduations of 0.5 for intermediate clinical signs. The score is described in table-1
# [2] = tested on: Experimental Autoimmune Encephalomyelitis (EAE) mice; assay: Efficacy of oral and ip MWL-001, MP and their combination in EAE (model of brain inflammation, MS), Example 2; assay type: in vivo, female C57Bl mice; details: for Inhibition of the clinical signs of the disease: day 0 to day 15
# Description: Induction of EAE: Disease was induced in female C57Bl mice (6-8 weeks old; Harlan). Myelin Oligodendrocyte Glycoprotein (MOG 35-55) (Hadassah ein karem) was dissolved in saline (3 mg/ml) and emulsified (1:1) with Complete Freund's Adjuvant (CFA) (gibco; containing 5 mg of killed MT). 200 microliter of emulsion (containing […] of MOG) was injected into the right flank, and each mouse received a supplement of 250 ng of pertussis toxin (List) i.p. Another 250 ng of pertussis toxin (PT) were injected 24 hours later. Mice were observed daily from the 9th day post-EAE and the clinical signs were scored as described in Table III below.
# MWL-001 was dissolved in ethanol (60 mg/ml), wherein in one group MWL-001 was administered ip and in a second group MWL-001 was administered orally by gavage at a dose of 50 mg/kg (10% stock in saline). The MWL-001 was administered once a day (from day 0) at 9 am. Treatment ended on day 15 post inoculation. Each dose was administered in a volume of 0.2 ml/mouse
# A third group of animals was treated ip with a dose of 25 mg/kg starting on day 7 and ending on day 15
# The number of animals in each of the above five groups was between 9 and 11.
# Calculation of the incidence of disease: The number of sick animals in each group was summed and percentage of sick animals in each group calculated.
# Calculation of the mean maximal score (MMS): The maximal scores of each of the 10 mice in the group were summed and the mean maximal score of each group was calculated as follows:Σ maximal score of each mouse / number of mice in the group.
# Calculation of the group mean score (GMS): The scores of each of the 10 mice in the group was summed and the mean score per day calculated. The group mean score was calculated as follows: Σ total score of each mouse per day/number of mice in the group.
# [3] = tested on: spinal cord of EAE animal; assay: Histopathology of H&E stained spinal cord sections of EAE animals; assay type: in vivo, mice
# Excerpt: FIG. 5 (A, B and C) is a histopathological photograph of a spinal cord section stained with H&E of control untreated EAE animal. P=parenchymal infiltrates, M=meningeal infiltrates and D=diffused infiltrates.
# FIG. 6 (A and B) is a histopathological photograph of a spinal cord section stained with H&E of EAE animal treated with MWL-001 (i.p.) on day 0.
# FIG. 7 (A and B) is a histopathological photograph of a spinal cord section stained with H&E of EAE animal treated with MWL-001 (i.p.) on day 10.
# Histopathological photographs are presented as FIGS. 5, 6 and 7).
# [4] = MW-001 50 mg/kg ip twice a day, treatment started on day 0, monitored day 0 to day 20
# [5] = MW-001 50 mg/kg ip twice a day, treatment started on day 10, monitored day 0 to day 20
# [6] = MWL-001 i.p. treatment started at day 10, FIG. 7 A and B
smiles,measurement,setting,value
CC/C=C/C/C=C/C/C=C/C/C=C/C/C=C/C/C=C/CCC(=O)N1CC(O)CC1C(=O)O (stereo not shown) [MW-001],"Effectiveness in preventing and ameliorating EAE (overall, vs untreated group)","[1]; 50 mg/kg ip twice a day, started on day 0 or day 10",highly effective in preventing and ameliorating EAE in mice
same,Disease incidence (sick mice/total),[1]; [4],**1/10
same,Mean day of onset,[1]; [4],15
same,Mean disease duration,[1]; [4],0.6 ± 0.19 days
same,Mean maximal score,[1]; [4],0.075 ± 0.02
same,Mean score (whole group),[1]; [4],0.2 ± 0.06
same,"Incidence (#dead, including sacrificed)",[1]; [5],11/11
same,Mean day of onset,[1]; [5],11 ± 0.09
same,Mean disease duration,[1]; [5],8.90 ± 0.2 days
same,Mean maximal score,[1]; [5],2.72 ± 0.14
same,Mean score (whole group),[1]; [5],1.34 ± 0.08
same,Severity of disease (clinical score),"[2]; 25 mg/kg ip, day 7 to day 15, 5 in the control group, FIG. 3",3
same,Inhibition of appearance of clinical signs,"[2]; 25 mg/kg ip, day 7 to day 15, FIG. 3",did not inhibit their appearance on day 10-11 post inoculation
same,Inhibition of the clinical signs of the disease,"[2]; 50 mg/kg once a day ip, FIG. 2",effective in inhibiting the clinical signs of the disease
same,Inhibition of the clinical signs of the disease,"[2]; 50 mg/kg once a day orally by gavage, FIG. 2",effective in inhibiting the clinical signs of the disease
same,Clinical signs after cessation of the drug,"[2]; 50 mg/kg once a day orally or ip, a few days after treatment ended on day 15, FIG. 2",mild signs of the disease appeared for a short period of time
same,Mononuclear cell infiltrates in the spinal cord (meningeal),"[3]; MWL-001 i.p. on Day 0, compared to untreated, FIG. 6 A and B",very few meningeal infiltrates
same,Mononuclear cell infiltrates in the spinal cord (meningeal),[3]; [6],very few meningeal infiltrates
same,Parenchymal or diffused infiltrates in the spinal cord,[3]; [6],no parenchymal or diffused infiltrates
